Assay [1] has as its system peptidylprolyl isomerase B (PPIB) mRNA. The assay is described as follows: siRNA delivery and real time RT PCR (PPIB mRNA knockdown in PC-3 cells). It counts as cell-based. The note with it: siRNA complexed with tag, real-time PCR. The protocol: A small library of 14 chemicals that represent various lipophilicities while sharing a carboxylic acid group for easy conjugation with ethidium was screened. These hydrophobic compounds were chemically linked to ethidium via a hexacarbon (C6) linker. The resulting small-molecule tags were mixed with a model siRNA sequence against peptidylprolyl isomerase B (PPIB) and tested on a prostate tumor cell line, PC-3, for RNAi.
PC-3 cells were seeded in 24-well plate at density of 5,000 cells per well. […] Total RNA was isolated from the cell monolayer using Trizol reagent (Invitrogen) according to the manufacturer's protocol. 200 nanograms of RNA was converted to cDNA using random hexamer primer and MultiScribe Reverse Transcriptase Reagent (Applied Biosystems, Inc., Branchburg, N.J.). 100 nanograms of cDNA was amplified by SensiFast SYBR kit (Bioline, Taunton, Mass.) on a Chromo4™ Real-Time system (Bio-Rad, Hercules, Calif.). The primers used for PPIB amplification were 5′-[…]-3′ (forward primer; SEQ ID NO:6) and 5′-[…]-3′ (reverse primer; SEQ ID NO:7). Primers for detection of 18s were 5′-[…]-3′ (forward primer; SEQ ID NO:8) and 5′-[…]-3′ (reverse primer; SEQ ID NO:9).

In assay [2] the test system is siRNA. The assay is described as follows: Intercalation into siRNA monitored by fluorescence activation. The class given is binding. The note with it: for intercalation of tag into siRNA (fluorescence enhancement): compared to tag 5; for fluorescence activation upon intercalation into siRNA: compared with DNA (positive control). The protocol: To test this new concept of cytosolic delivery, a conjugation-free methodology was investigated that incorporated small chemical tags to transform siRNA sufficiently hydrophobic, membrane-permeant, and self-deliverable. […] For a proof of concept, a number of existing oligonucleotide intercalators were tested, due to their potential to non-covalently attach the lipophilic moiety to siRNA. Although DNA intercalating dyes are well-studied and broadly available, selection of dsRNA intercalators is limited. […] DNA intercalating dyes apply a stretching force thus may or may not work on siRNA. Eight DNA intercalating dyes (molecular structures shown in FIG. 7) were evaluated utilizing a very convenient feature of these dyes, fluorescence activation upon intercalation into oligonucleotides. […] Therefore, ethidium was used in the following studies.
After 5-minute incubation, the mixture was diluted to 100 μL and the fluorescence was measured with the microplate reader. The fluorescence increment (J. B. Le Pecq, et al., DNA polyintercalating drugs: DNA binding of diacridine derivatives, Proc Natl Acad Sci USA 72(8) (1975) 2915-9; B. Gaugain, et al., DNA Bifunctional intercalators. 2. Fluorescence properties and DNA binding interaction of an ethidium homodimer and an acridine ethidium heterodimer, Biochemistry 17(24) (1978) 5078-88, each of which is incorporated herein by reference in its entirety), ΔIF, is the difference of fluorescence intensity of the tags in the presence or absence of siRNA.

Assay [3] relates to actin in HeLa cells. Nature of the assay: F-actin labeling in live cells using LifeAct-GFP. It counts as cell-based. As to the method: Lastly, two applications that should have a major impact on biology and medicine, immunofluorescence in live cells, and delivery of therapeutic proteins inside cells were assessed for compatibility with the disclosed tag approach for cytosolic delivery. Immunofluorescence, one of the most common techniques in biological and medical research, is currently used to profile cell surface markers on live cells (e.g., many flow cytometry studies) missing all the key cell signaling nodes inside cells. Alternatively, immunofluorescence is currently used on fixed cells, missing the temporal dynamics of active cell signaling that determines cell fate, behavior, communications, and growth. […] Briefly, HeLa cells were incubated with cholesterol-tagged LifeAct-GFP or LifeAct-GFP alone and the cells were imaged. […] To confirm the labeling specificity, cells were pretreated with cytochalasin-D before incubating with LifeAct-Tag.
HeLa cells were seeded onto glass-bottom dishes. After one-day of culturing, cells were incubated with fresh media containing tagged LifeAct-GFP for 4 h at 37° C., followed by washing and counterstaining Hoechst 33258. The cells were imaged on an Olympus fluorescence microscope equipped with a true-color CCD, Qcolor 5.

The test system of assay [4] is siRNA. Nature of the assay: Gel electrophoresis of siRNA with intercalators. The note with it: high degree of intercalation. From the text:
FIGS. 2A-2H illustrate tag design and characterizations. (FIG. 2A) Intercalation of conventional DNA intercalators into siRNA monitored by fluorescence activation. Ethidium and acridinium show similar fluorescence activation in both DNA and RNA, unlike the others. (FIG. 2B) Gel electrophoresis of siRNA with acridinium and ethidium at low and high degree of intercalation. […] (FIG. 2C) Screening hydrophobic compounds (after linking with ethidium) for mRNA (PPIB) knockdown in PC-3 cells. The numbers represent the compounds illustrated in FIG. 2D. Steroids such as cholesterol and stigmasterol offer the highest RNAi efficiency. (FIG. 2D) Molecular structures of the 14 exemplary chemical tags tested in the current study. The hydrophobic compounds are linked to ethidium via a C6 spacer. (FIG. 2E) Dose response of gene knockdown using siRNA tagged with ethidium-cholesterol (left) in PC-3 cells. […]
To test this new concept of cytosolic delivery, a conjugation-free methodology was investigated that incorporated small chemical tags to transform siRNA sufficiently hydrophobic, membrane-permeant, and self-deliverable. […] Eight DNA intercalating dyes (molecular structures shown in FIG. 7) were evaluated utilizing a very convenient feature of these dyes, fluorescence activation upon intercalation into oligonucleotides. […]

Assay [5] has as its system HeLa cells. Nature of the assay: Cellular delivery of tagged proteins, confocal microscopy. The settings on record: for intracellular fluorescence pattern of cholesterol-tagged protein: protein tagged with CB-cholesterol tag. It counts as cell-based. As to the method: Purified Coomassie blue-cholesterol tag powder was reconstituted with ethanol/water (v/v: 4/1) to a concentration of 1.6 mM and stored at 4° C. as a stock. Before tagging, the concentration of all the protein solutions was diluted to 25 μM. […] The mixture was quickly mixed by pipetting. The mixture was incubated in a water bath (37° C.) for 8 min and sonicated in an ultrasonic water bath for 30 seconds. After another round of 8-min water bath incubation at 37° C., the protein was ready for delivery.
Cells were seeded on glass-bottom dishes (poly-D-lysine treated, MatTek Corp.) one day before the experiments. The cell monolayer was washed once with serum-free RPMI 1640 media and treated with 2 mL of RPMI 1640 media containing the tagged protein at a final concentration of 1 μM for 2 h. In the end, the cells were counter-stained with Hoechst 33342 and Alexa Fluor® 594 labeled Wheat Germ Agglutinin (WGA-AF594), respectively. The cells were washed three times with RPMI 1640 and imaged on a Zeiss LSM 710 microscope.
To study the delivery effect at low temperature (4° C.), cell monolayers were pre-equilibrated with cold media (RPMI 1640) for 10 minutes at 4° C. and then treated with the cold solution of tagged protein for 3 h. The cells were washed with cold media and imaged immediately.

The test system of assay [6] is PC-3, MDA-MB-231, SK-BR-3, DU-145, KB, and HEK-293T. Nature of the assay: Cellular delivery of aprotinin-tag complex in additional cell types. The class given is cell-based. The note with it: protein-tag complex; independent of the cell lines. As to the method:
To further rule out the scenario that the tagged proteins initially enter cells via endocytosis followed by an efficient endosomal escape, the confocal microscopy experiment were performed again using the small protein, aprotinin, at 4° C., a temperature that blocks endocytic membrane trafficking. […] To evaluate the generality of this protein tagging technology, it was tested using […] additional cell types besides HeLa cells (i.e., PC-3, MDA-MB-231, SK-BR-3, DU-145, KB, and HEK-293T). Cells exposed to protein (aprotinin)-tag complex and then stained for protinin and WGA to show the cell boundary. […] Perhaps more importantly, protein transfection directly into the cytosol was also achieved in further experiments of primary cells including human adipose-derived stem cells, primary human dermal fibroblasts, and primary human umbilical vein endothelial cells (HUVEC) (not shown).
Cells were seeded on glass-bottom dishes (poly-D-lysine treated, MatTek Corp.) one day before the experiments. The cell monolayer was washed once with serum-free RPMI 1640 media and treated with 2 mL of RPMI 1640 media containing the tagged protein at a final concentration of 1 μM for 2 h. In the end, the cells were counter-stained with Hoechst 33342 and Alexa Fluor® 594 labeled Wheat Germ Agglutinin (WGA-AF594), respectively. […]

This is an account of results in US20220107246A1, “NONCOVALENT TAGS AND RELATED METHODS FOR CYTOSOLIC DELIVERY OF MACROBIOMOLECULES” (University of Washington, priority 2019, published 2022).

Entries after “also recorded” stand apart in the source; their conditions may differ.

As for “3,8-bis(tert-butyloxycarbonylamino)-5-(6-L-argininylcarbonylamino-hexyl)-6-phenylphenanthridine [tag 4]”, the “RNAi effect (PPIB mRNA knockdown), tag screening” value (“RNAi effect (PPIB mRNA knockdown)” for short) in assay [1] is on record as “no or low effect”.
The same measure, in the same setting: the result for “3,8-bis(tert-butyloxycarbonylamino)-5-(6-L-histinylcarbonylamino-hexyl)-6-phenylphenanthridine [tag 3]” reads “no or low effect”; that for “3,8-bis(tert-butyloxycarbonylamino)-5-(6-L-leucinylcarbonylamino-hexyl)-6-phenylphenanthridine [tag 2]”, “no or low effect”; that for “3,8-bis(tert-butyloxycarbonylamino)-5-(6-caprylcarbonylamino-hexyl)-6-phenylphenanthridine [tag 7]”, “no or low effect”.
“3,8-bis(tert-butyloxycarbonylamino)-5-(6-cerotylcarbonylamino-hexyl)-6-phenylphenanthridine [tag 9]”: in assay [2], the “intercalation of tag into siRNA (fluorescence enhancement)” value is “minor fluorescence enhancement; also recorded: failed to intercalate into siRNA”. For the same compound, in assay [1], the “RNAi effect (PPIB mRNA knockdown)” value is “failed to lower the PPIB mRNA level”.
As for “3,8-bis(tert-butyloxycarbonylamino)-5-(6-chloroquinecarboylamino-hexyl)-6-phenylphenanthridine [tag 13]”, the “RNAi effect (PPIB mRNA knockdown)” value in assay [1] was “no or low effect”.
“3,8-bis(tert-butyloxycarbonylamino)-5-(6-cholesterylcarbonylamino-hexyl)-6-phenylphenanthridine [tag 5]”: the “RNAi effect (PPIB mRNA knockdown)” value in assay [1] is “significant RNAi effect”.
On the same count and under the same terms, the result for “3,8-bis(tert-butyloxycarbonylamino)-5-(6-pentadecylcarbonylamino-hexyl)-6-phenylphenanthridine [tag 8]” reads “no or low effect”.
Same read-out and setting: the result for “3,8-bis(tert-butyloxycarbonylamino)-5-(6-stigmasterylcarbonylamino-hexyl)-6-phenylphenanthridine [tag 6]” reads “significant RNAi effect”.
As to “3,8-bis(tert-butyloxycarbonylamino)-5-[6-(1,2-dipalmitin)-carboylamino-hexyl]-6-phenylphenanthridine [tag 14]”, the “intercalation of tag into siRNA (fluorescence enhancement)” value in assay [2] is recorded as “minor fluorescence enhancement; also recorded: failed to intercalate into siRNA”. In addition, the “RNAi effect (PPIB mRNA knockdown)” value in assay [1] is listed as “no RNAi effect”.
With `C=C1[C@@H](C)[C@H]2[C@H](Cc3ccccc3)NC(=O)[C@]23[C@H](OC(C)=O)/C=C/[C@@](C)(O)C(=O)[C@@H](C)C/C=C/[C@H]3[C@@H]1O` [cytochalasin-D, reference compound], the “actin filament structure after pretreatment” value in assay [3] (cells pretreated before incubating with LifeAct-Tag) is listed as “completely disrupted”.
As to `CC[n+]1c(-c2ccccc2)c2cc(N)ccc2c2ccc(N)cc21` [ethidium, reference compound], the “fluorescence activation upon intercalation into siRNA” value in assay [2] is listed as “strong binding with siRNA”. For the same compound, the “unwinding of siRNA duplex” value in assay [4] was “does not”.
Consider “Coomassie blue, dicholest carbamyl 3-(3-propyl dimethyl amino)propyl sulfonamide [cholesterol tag]”, for which, in assay [3] (same LifeAct-GFP concentration), the “imaging quality of delivered LifeAct-GFP” value is reported as “significantly better contrast”.
For acridinium [reference compound], the “fluorescence activation upon intercalation into siRNA” value in assay [2] is listed as “strong binding with siRNA”. Further, the “unwinding of siRNA duplex” value in assay [4] is reported as “unwound the siRNA double helix”.
aprotinin: the “intracellular fluorescence pattern of cholesterol-tagged protein” value in assay [5] (HeLa cells) is “bright and homogeneous fluorescence intracellular distribution”. In addition, the “intracellular fluorescence pattern without the cholesterol tag” value in assay [5] (HeLa cells, same condition, no tag) is listed as “only a few punctate fluorescent spots”. In addition, the “uptake by cells at 4° C.” value in assay [5] (low tag/protein ratio) was “virtually confined to the cell membrane”; in assay [5] (optimal tag/aprotinin ratio), “bright and homogeneous intracellular fluorescence”; in assay [5] (without the tag), “negligible”. In addition, the “cytosolic delivery in additional cell types” value in assay [6] is “Efficient cytosolic delivery”.
In the case of “lysozyme: protein, 15 kDa, fluorescently labeled cargo”, in assay [5] (HeLa cells), the “intracellular fluorescence pattern of cholesterol-tagged protein” value is “diffused distribution while having a few punctate bright spots”. Also, the intracellular fluorescence distribution entry was “only punctate intracellular fluorescence distribution” in assay [5] (tag:protein molar ratio 1:1), “only punctate intracellular fluorescence distribution” in assay [5] (tag:protein molar ratio 3:1), “diffused fluorescence signal started to appear” in assay [5] (tag:protein molar ratio 6:1) and “significant direct membrane permeation” in assay [5] (tag:protein molar ratio 8:1).
